Here are results for one compound from ChEMBL document CHEMBL4665646, “Mass Spectrometry-based Label-free Quantitative Proteomics To Study the Effect of 3PO Drug at Cellular Level” (2019).

Experiment [1] deals with EA.hy 926. In words: Antiinflammatory activity in TNFalpha-induced human EA.hy 926 cells assessed as decrease in SOD-2 expression by measuring log2 fold change at 20 uM pretreated with compound for 1 hr followed by TNFalpha challenge and further incubated for 24 hrs by SYBR-green based qRT-PCR analysis (reference value: 2.69). It counts as functional. To be noted: time 25 hrs. In general terms: In qPCR the cycle at which signal appears reflects the starting amount.

Experiment [2] deals with EA.hy 926. Put plainly: Antiinflammatory activity in TNFalpha-induced human EA.hy 926 cells assessed as decrease in IL8 expression at 20 uM pretreated with compound for 1 hr followed by TNFalpha challenge and further incubated for 24 hrs by SYBR-green based qRT-PCR analysis. It counts as functional, cell-based. To be noted: time 25.0 hrs.
The test system of experiment [3] is EA.hy 926. In words: Antiinflammatory activity in TNFalpha-induced human EA.hy 926 cells assessed as decrease in […] expression at 20 uM pretreated with compound for 1 hr followed by TNFalpha challenge and further incubated for 24 hrs by SYBR-green based qRT-PCR analysis. In kind it is functional, cell-based. To be noted: time 25.0 hrs.
Experiment [4] has as its system EA.hy 926. Put plainly: Antiinflammatory activity in TNFalpha-induced human EA.hy 926 cells assessed as decrease in ICAM-1 expression by measuring log2 fold change at 20 uM pretreated with compound for 1 hr followed by TNFalpha challenge and further incubated for 24 hrs by SYBR-green based qRT-PCR analysis. To be noted: time 25 hrs. In kind it is functional.
Experiment [5] has as its system EA.hy 926. In words: Cytotoxicity against human EA.hy 926 cells assessed as inhibition of cell proliferation at 20 uM after 24 hrs by MTT assay. In kind it is functional, cell-based. In general terms: Formazan colour is commonly taken as a measure of viable cells.
The test system of experiment [6] is EA.hy 926. In words: Antiinflammatory activity in TNFalpha-induced human EA.hy 926 cells assessed as decrease in IL1B expression at 20 uM pretreated with compound for 1 hr followed by TNFalpha challenge and further incubated for 24 hrs by SYBR-green based qRT-PCR analysis. To be noted: time 25.0 hrs. It counts as functional, cell-based.
The test system of experiment [7] is EA.hy 926. Put plainly: Antiinflammatory activity in TNFalpha-induced human EA.hy 926 cells assessed as decrease in HLA-A expression by measuring log2 fold change at 20 uM pretreated with compound for 1 hr followed by TNFalpha challenge and further incubated for 24 hrs by SYBR-green based qRT-PCR analysis (reference value: 1.56). It counts as functional. To be noted: time 25 hrs.

Activity calls are given as the source filed them. The calls are words filed in the database; no cut-off is given here.

As for `O=C(/C=C/c1cccnc1)c1ccncc1`, the log2FC was -0.53 in experiment [1], -0.47 in experiment [4] and -0.75 in experiment [7]. Also, the outcome in experiment [2], in experiment [3] and in experiment [6] was Active. Moreover, in experiment [5], the inhibition entry is “Active”.
